Assays:
Format in all cases: biochemical
HCV polymerase [1] = target: T1, HCV polymerase (Hepatitis C virus genotype 1a, UniProt P27958); assay: GpC dinucleotide-primed RNA synthesis
T1 construct: a particularly preferred RNA polymerases is the HCV NS5B polypeptide
Excerpt: (§1) It was also observed that certain dinucleotide analogues were able to inhibit dinucleotide-primed RNA synthesis. […] Furthermore, this inhibitory activity is sequence specific. When a different dinucleotide primer (GpG) was used to prime RNA synthesis from the. […] These observations further support the model that base pairing capability between the dinucleotide compound and the template terminal bases is important for achieving sufficient inhibition of HCV polymerase.

HCV NS5B = target: T2, HCV NS5B (Hepatitis C virus genotype 1a, UniProt P27958); assay: HCV NS5B de novo initiation assay, GTP as initiation nucleotide
T2 construct: a particularly preferred RNA polymerases is the HCV NS5B polypeptide
T2 sequence (P27958 2421-3011): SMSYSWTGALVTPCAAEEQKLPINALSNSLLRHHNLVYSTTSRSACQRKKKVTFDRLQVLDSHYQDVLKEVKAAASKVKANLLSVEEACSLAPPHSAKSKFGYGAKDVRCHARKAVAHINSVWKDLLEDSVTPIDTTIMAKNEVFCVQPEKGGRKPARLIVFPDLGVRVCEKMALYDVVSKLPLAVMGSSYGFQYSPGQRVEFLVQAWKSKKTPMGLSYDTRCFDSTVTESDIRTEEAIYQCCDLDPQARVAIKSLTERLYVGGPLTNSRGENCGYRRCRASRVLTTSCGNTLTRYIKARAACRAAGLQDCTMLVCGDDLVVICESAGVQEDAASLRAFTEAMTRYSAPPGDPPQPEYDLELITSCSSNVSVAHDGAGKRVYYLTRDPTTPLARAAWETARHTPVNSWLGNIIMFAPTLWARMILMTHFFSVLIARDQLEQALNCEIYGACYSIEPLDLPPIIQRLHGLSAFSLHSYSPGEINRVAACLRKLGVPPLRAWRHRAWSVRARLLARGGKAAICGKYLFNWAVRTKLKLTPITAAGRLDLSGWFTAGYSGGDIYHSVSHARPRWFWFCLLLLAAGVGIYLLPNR
Excerpt: (§2) In vitro RNA-dependent RNA polymerase assay was used to evaluate activity of dinucleotide compounds as inhibitors of HCV polymerase. Examples of such compounds are illustrated below as compounds A and B in.

HCV polymerase [2] = target: T1, HCV polymerase; assay: HCV NS5B de novo initiation assay, ATP as initiation nucleotide
Procedure: as §2
To further determine whether this inhibitory effect of HCV polymerase is specific for a particular initiation nucleotide, de novo initiation assay was performed using ATP as the initiation nucleotide (template RNA: 5′ AAAAAAAAGU 3′).

HCV polymerase [3] = target: T1, HCV polymerase; assay: GpG dinucleotide-primed RNA synthesis; conditions: dinucleotide primer GpG; RNA template 5′ AAAAAAAACC 3′; FIG. 4
Excerpt: as §1

T1 sequence (P27958 2421-3011): as above

| SMILES | IC50 (HCV polymerase [1]) [µM] | IC50 (HCV NS5B) [µM] | IC50 (HCV polymerase [2]) [µM] | inhibition of polymerase activity (GpG-primed RNA synthesis) (HCV polymerase [3]) |
| --- | --- | --- | --- | --- |
| COC1C(OP(O)(=S)OCC2CC(O)C(n3ccc(N)nc3=O)O2)C(COP(=O)(O)O)OC1n1cnc2c(=O)[nH]c(N)nc21 (stereo not shown) [compound A] | 50 | 20 | ~90 | lost the ability to inhibit the polymerase activity |
| COC1[C@@H](COP(O)(=S)OC2[C@@H](COP(=O)(O)O)O[C@@H](n3cnc4c(=O)[nH]c(N)nc43)[C@H]2OC)O[C@@H](n2ccc(N)nc2=O)[C@H]1O (stereo partly shown) [compound B] | ~80 | 65 |  | lost the ability to inhibit the polymerase activity |
